PubChem BioAssay AID330 (DTP/NCI, 2004)
Values joined by “and” are separate entries in the source; they are usually repeats but may differ in a detail not shown here. Equal entries are not always repeated. Inconclusive results and toxic doses are left out.

Test system: P388 leukemia ip, CD2F1 mice, survival T/C
Test: NCI In Vivo Anticancer Drug Screen. Data for tumor model P388 Leukemia (intraperitoneal) in CD2F1 (CDF1) mice
Settings: endpoint: median survival time, higher = longer survival
Experimental: The antitumor activity of compounds was measured in mice bearing transplantable tumors. Survival or tumor size were measured and the results are expressed as the measurement made in the treated group (T) divided by the measurement made in the vehicle treated control group (C). The tumor model used in this assay is P388 Leukemia (intraperitoneal) in CD2F1 (CDF1) mice

[1] = dose: 50.0 mg/kg/injection, schedule: Q01DX009 (ip), vehicle: saline with Tween-80
[2] = dose: 100.0 mg/kg/injection, schedule: Q01DX009 (ip), vehicle: saline with Tween-80
[3] = dose: 60.0 mg/kg/injection, schedule: Q01DX005 (ip), vehicle: saline with Tween-80
[4] = dose: 120.0 mg/kg/injection, schedule: Q01DX005 (ip), vehicle: saline with Tween-80
[5] = dose: 50.0 mg/kg/injection, schedule: Q01DX009 (ip), vehicle: Klucel (hydroxypropylcellulose) (HPC)
[6] = dose: 100.0 mg/kg/injection, schedule: Q01DX009 (ip), vehicle: Klucel (hydroxypropylcellulose) (HPC)
[7] = dose: 200.0 mg/kg/injection, schedule: Q01DX009 (ip), vehicle: Klucel (hydroxypropylcellulose) (HPC)
[8] = dose: 50.0 mg/kg/injection, schedule: Q01DX005 (ip), vehicle: saline with Tween-80
[9] = dose: 100.0 mg/kg/injection, schedule: Q01DX005 (ip), vehicle: saline with Tween-80
[10] = dose: 200.0 mg/kg/injection, schedule: Q01DX005 (ip), vehicle: saline with Tween-80
[11] = dose: 100.0 mg/kg/injection, schedule: Q04DX003 (ip), vehicle: saline with Tween-80
[12] = dose: 200.0 mg/kg/injection, schedule: Q04DX003 (ip), vehicle: saline with Tween-80
[13] = dose: 200.0 mg/kg/injection, schedule: Q01DX009 (ip), vehicle: saline with Tween-80
[14] = dose: 25.0 mg/kg/injection, schedule: Q01DX005 (ip), vehicle: saline with Tween-80
[15] = dose: 50.0 mg/kg/injection, schedule: Q01DX005 (ip), vehicle: saline
[16] = dose: 50.0 mg/kg/injection, schedule: Q01DX009 (ip), vehicle: saline
[17] = dose: 100.0 mg/kg/injection, schedule: Q01DX009 (ip), vehicle: saline
[18] = dose: 200.0 mg/kg/injection, schedule: Q01DX009 (ip), vehicle: saline
[19] = dose: 50.0 mg/kg/injection, schedule: Q01DX005 (ip), vehicle: Klucel (hydroxypropylcellulose) (HPC)
[20] = dose: 100.0 mg/kg/injection, schedule: Q01DX005 (ip), vehicle: Klucel (hydroxypropylcellulose) (HPC)
[21] = dose: 200.0 mg/kg/injection, schedule: Q01DX005 (ip), vehicle: Klucel (hydroxypropylcellulose) (HPC)

CC1CN=C(c2ccc(NC(=O)NCCCCCCCCCNC(=O)Nc3ccc(C4=NCC(C)N4)cc3)cc2)N1 (configuration not stated)
T/C (dose: 12.5 mg/kg/injection, schedule: Q01DX005 (ip), vehicle: saline + Tween-80 + alcohol): 106 % of control and 110 % of control
T/C (dose: 25.0 mg/kg/injection, schedule: Q01DX005 (ip), vehicle: saline + Tween-80 + alcohol): 105 % of control and 118 % of control
T/C (dose: 50.0 mg/kg/injection, schedule: Q01DX005 (ip), vehicle: saline + Tween-80 + alcohol): 110 % of control and 121 % of control
T/C (dose: 100.0 mg/kg/injection, schedule: Q01DX005 (ip), vehicle: saline + Tween-80 + alcohol): 108 % of control

CCCCCCCCCCCCCCCC(O)S(=O)(=O)O (configuration not stated)
T/C (dose: 25.0 mg/kg/injection, schedule: Q01DX009 (ip), vehicle: saline with Tween-80): 100 % of control
T/C [1]: 100 % of control
T/C [2]: 100 % of control

C(=C\c1cc(-c2cc(/C=C/c3ccccc3)[nH]n2)n[nH]1)/c1ccccc1
T/C [3]: 100 % of control
T/C [4]: 99 % of control

C#CC(CC)OC(=O)c1ccc([N+](=O)[O-])cc1 (configuration not stated)
T/C [5]: 103 % of control
T/C [6]: 103 % of control
T/C [7]: 91 % of control

CCCCCCCCCCCCCC[N+]1(CC)CCCC1
T/C (dose: 6.25 mg/kg/injection, schedule: Q04DX002 (ip), vehicle: saline): 119 % of control
T/C (dose: 12.5 mg/kg/injection, schedule: Q04DX002 (ip), vehicle: saline): 86 % of control

CC1(C(=O)O)C2[Se]c3cc[se]c3C2C1(C)C(=O)O (configuration not stated)
T/C [8]: 100 % of control
T/C [9]: 100 % of control
T/C [10]: 104 % of control

Cn1ncc2c(N)ncnc21
T/C [1]: 118 % of control
T/C [11]: 109 % of control
T/C [12]: 123 % of control

COc1ccc2cc3[nH]c(=O)cc(O)c3cc2c1OC
T/C (dose: 12.5 mg/kg/injection, schedule: Q01DX009 (ip), vehicle: other): 96 % of control
T/C (dose: 25.0 mg/kg/injection, schedule: Q01DX009 (ip), vehicle: other): 106 % of control
T/C (dose: 50.0 mg/kg/injection, schedule: Q01DX009 (ip), vehicle: other): 101 % of control
T/C (dose: 100.0 mg/kg/injection, schedule: Q01DX009 (ip), vehicle: other): 89 % of control
T/C (dose: 200.0 mg/kg/injection, schedule: Q01DX009 (ip), vehicle: other): 89 % of control

Cc1ccc(S(=O)CC(O)COCc2ccccc2)cc1 (configuration not stated)
T/C [1]: 89 % of control
T/C [2]: 94 % of control
T/C [13]: 91 % of control

CSC(C(O)C(O)C(O)C(O)CO)n1cnc2c(=S)nc[nH]c21 (configuration not stated)
T/C [8]: 99 % of control
T/C [9]: 96 % of control
T/C [10]: 99 % of control

C/C=C\C1OC1(C)c1cc(=O)c2c(C)cc3c(c2o1)C(=O)c1c(O)c(C2CC(C)(N(C)C)C(OC(C)=O)C(C)O2)cc(C2CC(N(C)C)C(O)C(C)O2)c1C3=O (configuration not stated)
T/C (dose: 1.0 mg/kg/injection, schedule: Q01DX009 (ip), vehicle: saline + alcohol): 122 % of control
T/C (dose: 1.0 mg/kg/injection, schedule: Q01DX010 (ip), vehicle: saline): 154 % of control
T/C (dose: 2.0 mg/kg/injection, schedule: Q01DX010 (ip), vehicle: saline): 95 % of control

NC(N)=O.NC(N)=O.NC(N)=O.NC(N)=O.NC(N)=O.NC(N)=O.[O-][Cl+3]([O-])([O-])O.[V]
T/C (dose: 25.0 mg/kg/injection, schedule: Q04DX003 (ip), vehicle: saline with Tween-80): 94 % of control
T/C (dose: 50.0 mg/kg/injection, schedule: Q04DX003 (ip), vehicle: saline with Tween-80): 97 % of control
T/C [11]: 109 % of control

CN(C)c1ccc(C=C2C(=O)N(c3ccccc3)C(=S)N(c3ccccc3)C2=O)cc1
T/C (dose: 60.0 mg/kg/injection, schedule: Q01DX005 (ip), vehicle: Klucel (hydroxypropylcellulose) (HPC)): 90 % of control
T/C (dose: 120.0 mg/kg/injection, schedule: Q01DX005 (ip), vehicle: Klucel (hydroxypropylcellulose) (HPC)): 92 % of control
T/C (dose: 240.0 mg/kg/injection, schedule: Q01DX005 (ip), vehicle: Klucel (hydroxypropylcellulose) (HPC)): 92 % of control

C=CC1(C)CC(O)C2C(C)C(=O)OC2C1C(=C)C (configuration not stated)
T/C [2]: 100 % of control
T/C [13]: 100 % of control
T/C (dose: 400.0 mg/kg/injection, schedule: Q01DX009 (ip), vehicle: saline with Tween-80): 100 % of control

O=C(O)CC(O)CCO (configuration not stated)
T/C (dose: 100.0 mg/kg/injection, schedule: Q01DX001 (ip), vehicle: saline): 104 % of control
T/C (dose: 200.0 mg/kg/injection, schedule: Q01DX001 (ip), vehicle: saline): 103 % of control
T/C (dose: 400.0 mg/kg/injection, schedule: Q01DX001 (ip), vehicle: saline): 101 % of control

C/C=C/C(O)CC1CCCCN1 (configuration not stated)
T/C (dose: 100.0 mg/kg/injection, schedule: Q04DX003 (ip), vehicle: saline): 100 % of control

CC(=O)Nc1[c-]cccc1.CC(=O)Nc1[c-]cccc1.CC(=O)O.CC(=O)O.[Pd].[Pd]
T/C (dose: 6.25 mg/kg/injection, schedule: Q01DX005 (ip), vehicle: saline with Tween-80): 94 % of control
T/C (dose: 12.5 mg/kg/injection, schedule: Q01DX005 (ip), vehicle: saline with Tween-80): 95 % of control and 98 % of control
T/C [14]: 119 % of control and 98 % of control
T/C [8]: 100 % of control and 110 % of control

Cc1cccc(-c2nc(N)nc(N)n2)c1
T/C [1]: 92 % of control
T/C [2]: 95 % of control
T/C [13]: 104 % of control

CC(=O)Nc1ccc(S(=O)(=O)N/N=C/c2cc([N+](=O)[O-])cc(I)c2O)cc1
T/C [3]: 93 % of control
T/C [4]: 97 % of control
T/C (dose: 240.0 mg/kg/injection, schedule: Q01DX005 (ip), vehicle: saline with Tween-80): 103 % of control

Nc1ccc(C(=O)Oc2ccc([N+](=O)[O-])cc2)cc1
T/C [11]: 95 % of control
T/C [12]: 90 % of control

O=C1c2cccnc2C(=O)N1CCO
T/C [15]: 95 % of control
T/C (dose: 100.0 mg/kg/injection, schedule: Q01DX005 (ip), vehicle: saline): 100 % of control
T/C (dose: 200.0 mg/kg/injection, schedule: Q01DX005 (ip), vehicle: saline): 101 % of control

CCOC(=O)c1c(N)ssc1=S
T/C [16]: 100 % of control
T/C [17]: 97 % of control
T/C [18]: 105 % of control

c1ccc2c(-c3ccc(N4CCOCC4)cc3)c3ccc4ccccc4c3cc2c1
T/C [19]: 91 % of control
T/C [20]: 92 % of control
T/C [21]: 99 % of control

O=S(=O)(Nc1ccnn1-c1ccccc1)c1ccc(NC(=S)Nc2ccccc2)cc1
T/C [8]: 96 % of control
T/C [9]: 93 % of control
T/C [10]: 91 % of control

Cc1ccc2cccc(OC(=O)c3c(F)cccc3Cl)c2n1
T/C [19]: 99 % of control
T/C [20]: 96 % of control
T/C [21]: 99 % of control

CCN(CC)CCCC(C)NC(=O)Nc1cc(OC)cc2cccnc12 (configuration not stated)
T/C (dose: 12.5 mg/kg/injection, schedule: Q01DX005 (ip), vehicle: saline): 107 % of control
T/C (dose: 25.0 mg/kg/injection, schedule: Q01DX005 (ip), vehicle: saline): 108 % of control
T/C [15]: 104 % of control and 106 % of control

CC(=O)N1CCc2cc([N+](=O)[O-])ccc21
T/C [5]: 99 % of control
T/C [6]: 113 % of control
T/C [7]: 100 % of control
T/C (dose: 400.0 mg/kg/injection, schedule: Q01DX009 (ip), vehicle: Klucel (hydroxypropylcellulose) (HPC)): 110 % of control

CCCNC(=S)N/N=C(/C)CC/C(C)=N/NC(=S)NCCC
T/C (dose: 12.5 mg/kg/injection, schedule: Q01DX009 (ip), vehicle: saline): 98 % of control
T/C (dose: 25.0 mg/kg/injection, schedule: Q01DX009 (ip), vehicle: saline): 99 % of control
T/C [16]: 104 % of control and 86 % of control

Cc1nn(C(=S)S)c(C)c1N=Nc1ccccc1Cl
T/C [8]: 111 % of control
T/C [9]: 117 % of control
T/C [10]: 108 % of control

O=[N+]([O-])c1ccc(Sc2c3ccccc3nc3ccccc23)cn1
T/C [14]: 104 % of control
T/C [8]: 109 % of control
T/C [9]: 104 % of control
T/C [10]: 101 % of control

CC(=O)c1oc(C)nc1C
T/C [16]: 104 % of control
T/C [17]: 100 % of control
T/C [18]: 104 % of control

COc1ccc(C2(O)c3ccccc3C(=O)c3ccccc32)cc1
T/C [19]: 95 % of control
T/C [20]: 96 % of control
T/C [21]: 107 % of control
